Assay results reported in patent US10821115B2, “Compounds that inhibit Mcl-1 protein” (priority 2017, dated 2020).
Read-outs that look alike come from different tables or passages of the source.

What was measured:
[1] = target: recombinant human Mcl-1 (residues 171-327) / Bim interaction (Homo sapiens (Human), UniProt Q07820); test: biochemical; type: binding
[2] = system: human multiple myeloma cell line, OPM-2; test: Cell viability assay (OPM-2 10 FBS), CellTiter-Glo; type: cell-based
Summary of the method: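 3000 cells/well, RPMI 1640 + 10% FBS; serial compound dilutions, 16 h, 37 °C/5% CO2.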

[3] = TR-FRET, Mcl-1(171-327) / biotin-Bim (51-76), read-out: Mcl-1 HTRF IC50
[4] = Homo sapiens, OPM-2, 16 h, read-out: OPM-2 10% FBS IC50 IP, OPM-2 cells, 10% FBS, 16 h, CellTiter-Glo

Sequence of recombinant human Mcl-1 (residues 171-327) / Bim interaction (Q07820 171-327): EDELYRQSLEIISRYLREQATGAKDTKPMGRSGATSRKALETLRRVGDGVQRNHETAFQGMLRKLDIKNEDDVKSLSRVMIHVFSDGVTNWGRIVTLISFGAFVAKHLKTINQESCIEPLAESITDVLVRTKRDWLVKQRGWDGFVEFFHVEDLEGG

SMILES | IC50 [1, 3] | IC50 ([2]; read-out: OPM-2 10% FBS IC50 IP, OPM-2 cells, 10% FBS, 16 h, CellTiter-Glo) | IC50 [2, 4] | IC50 ([1]; read-out: Mcl-1 HTRF IC50) | IC50 ([1]; Mcl-1 HTRF IC50)
CO[C@@]1(CC(=O)N(C)C)/C=C/C[C@H](C)[C@@H](C)S(=O)(=O)NC(=O)c2ccc3c(c2)N(C[C@@H]2CC[C@H]21)C[C@@]1(CCCc2cc(Cl)ccc21)CO3 [Example 100002, 2-((1 S,3′R,6′R,7′S,8′E,11′S, 12′R)-6-chloro-7′-methoxy-11′,12′-dimethyl-13′,13′-dioxido-15′-oxo-3,4-dihydro-2H-spiro[naphthalene-1,22′-[20]oxa[13]thia[1,14]diazatetracyclo[14.7.2.0-3,6˜.0˜19,24˜]pentacosa[8,16,18,24]tetraen]-7′-yl)-N,N-dimethylacetamide] | 0.071 nM | 41 nM | – | – | –
COCCN(C)C(=O)C[C@]1(OC)/C=C/C[C@H](C)[C@@H](C)S(=O)(=O)NC(=O)c2ccc3c(c2)N(C[C@@H]2CC[C@H]21)C[C@@]1(CCCc2cc(Cl)ccc21)CO3 [Example 100005, 2-((1 S,3′R,6′R,7′S,8′E,11′S, 12′R)-6-chloro-7′-methoxy-11′,12′-dimethyl-13′,13′-dioxido-15′-oxo-3,4-dihydro-2H-spiro[naphthalene-1,22′-[20]oxa[13]thia[1,14]diazatetracyclo[14.7.2.0-3,6˜.0˜19,24˜]pentacosa[8,16,18,24]tetraen]-7′-yl)-N-(2-methoxyethyl)-N-methylacetamide] | 0.091 nM | – | 62 nM | – | –
CO[C@@]1(CC(=O)N2CCC2)/C=C/C[C@H](C)[C@@H](C)S(=O)(=O)NC(=O)c2ccc3c(c2)N(C[C@@H]2CC[C@H]21)C[C@@]1(CCCc2cc(Cl)ccc21)CO3 [Example 100006, (1 S,3′R,6′R,7′S,8′E,11′S,12′R)-7′-(2-(1-azetidinyl)-2-oxoethyl)-6-chloro-7′-methoxy-1′,12′-dimethyl-3,4-dihydro-2H, 15′H-spiro[naphthalene-1,22′-[20]oxa[13]thia[1,14]diazatetracyclo[14.7.2.0-3,6˜.0˜19,24˜]pentacosa[8,16,18,24]tetraen]-15′-one 13′,13′-dioxide] | 0.081 nM | – | 131 nM | – | –
C[C@@H]1[C@@H](C)C/C=C/[C@](C)(OCCN2CCOCC2)[C@@H]2CC[C@H]2CN2C[C@@]3(CCCc4cc(Cl)ccc43)COc3ccc(cc32)C(=O)NS1(=O)=O [Example 100007, (1 S,3′R,6′R,7′S,8′E,11′S, 12′R)-6-chloro-7′,11′,12′-trimethyl-7′-(2-(4-morpholinyl)ethoxy)-3,4-dihydro-2H, 15′H-spiro[naphthalene-1,22′-[20]oxa[13]thia[1,14]diazatetracyclo[14.7.2.0-3,6˜.0˜19,24˜]pentacosa[8,16,18,24]tetraen]-15′-one 13′,13′-dioxide] | 0.367 nM | – | 142 nM | – | –
CO[C@@]1(CC(=O)N(C)C(C)(C)C)/C=C/C[C@H](C)[C@@H](C)S(=O)(=O)NC(=O)c2ccc3c(c2)N(C[C@@H]2CC[C@H]21)C[C@@]1(CCCc2cc(Cl)ccc21)CO3 [Example 100008, 2-((1 S,3′R,6′R,7′S,8′E,11′S, 12′R)-6-chloro-7′-methoxy-11′,12′-dimethyl-13′,13′-dioxido-15′-oxo-3,4-dihydro-2H-spiro[naphthalene-1,22′-[20]oxa[13]thia[1,14]diazatetracyclo[14.7.2.0-3,6˜.0˜19,24˜]pentacosa[8,16,18,24]tetraen]-7′-yl)-N-methyl-N-(2-methyl-2-propanyl)acetamide] | 0.17 nM | – | 541 nM | – | –
CNC(=O)C[C@]1(OC)/C=C/C[C@H](C)[C@@H](C)S(=O)(=O)NC(=O)c2ccc3c(c2)N(C[C@@H]2CC[C@H]21)C[C@@]1(CCCc2cc(Cl)ccc21)CO3 [Example 100009, 2-((1 S,3′R,6′R,7′S,8′E,11′S, 12′R)-6-chloro-7′-methoxy-11′,12′-dimethyl-13′,13′-dioxido-15′-oxo-3,4-dihydro-2H-spiro[naphthalene-1,22′-[20]oxa[13]thia[1,14]diazatetracyclo[14.7.2.0-3,6˜.0˜19,24˜]pentacosa[8,16,18,24]tetraen]-7′-yl)-N-methylacetamide] | 0.128 nM | – | 216 nM | – | –
CO[C@@]1(CC(=O)N2CCCC2)/C=C/C[C@H](C)[C@@H](C)S(=O)(=O)NC(=O)c2ccc3c(c2)N(C[C@@H]2CC[C@H]21)C[C@@]1(CCCc2cc(Cl)ccc21)CO3 [Example 100010, (1 S,3′R,6′R,7′S,8′E,11′S, 12′R)-6-chloro-7′-methoxy-11′,12′-dimethyl-7′-(2-oxo-2-(1-pyrrolidinyl)ethyl)-3,4-dihydro-2H, 15′H-spiro[naphthalene-1,22′-[20]oxa[13]thia[1,14]diazatetracyclo[14.7.2.0-3,6˜.0˜19,24˜]pentacosa[8,16,18,24]tetraen]-15′-one 13′,13′-dioxide] | 0.077 nM | – | 142 nM | – | –
CO[C@@]1(C#CCCN2CCN3CCOC[C@@H]3C2)/C=C/C[C@H](C)[C@@H](C)S(=O)(=O)NC(=O)c2ccc3c(c2)N(C[C@@H]2CC[C@H]21)C[C@@]1(CCCc2cc(Cl)ccc21)CO3 [Example 100011, (1 S,3′R,6′R,7′S,8′E,11′S, 12′R)-6-chloro-7′-(4-((9aS)-hexahydropyrazino[2,1-c][1,4]oxazin-8(1H)-yl)-1-butyn-1-yl)-7′-methoxy-11′,12′-dimethyl-3,4-dihydro-2H,15′H-spiro[naphthalene-1,22′-[20]oxa[13]thia[1,14]diazatetracyclo[14.7.2.0-3,6˜.0˜19,24˜]pentacosa[8,16,18,24]tetraen]-15′-one 13′,13′-dioxide] | 0.153 nM | – | 134 nM | – | –
CO[C@@]1(C)/C=C/C[C@H](C)[C@@H](C)S(=O)(=O)NC(=O)c2ccc3c(c2)N(C[C@@H]2CC[C@H]21)C[C@@]1(CCCc2cc(Cl)ccc21)CO3 [Example 100014, (1S,3′R,6′R,7′S,8′E, 11′S, 12′R)-6-chloro-7′-methoxy-7′,11′,12′-trimethyl-3,4-dihydro-2H,15′H-spiro[naphthalene-1,22′-[20]oxa[13]thia[1,14]diazatetracyclo[14.7.2.0-3,6˜.0˜19,24˜]pentacosa[8,16,18,24]tetraen]-15′-one 13′,13′-dioxide] | – | – | 330 nM | 0.228 nM | –
C[C@@H]1[C@@H](C)C/C=C/[C@](C)(O)[C@@H]2CC[C@H]2CN2C[C@@]3(CCCc4cc(Cl)ccc43)COc3ccc(cc32)C(=O)NS1(=O)=O [Example 100016, (1S,3′R,6′R,7′S,8′E,11′S, 12′R)-6-chloro-7′-hydroxy-7′,11′,12′-trimethyl-3,4-dihydro-2H,15′H-spiro[naphthalene-1,22′-[20]oxa[13]thia[1,14]diazatetracyclo[14.7.2.0-3,6˜.0˜19,24˜]pentacosa[8,16,18,24]tetraen]-15′-one 13′,13′-dioxide] | – | – | 132 nM | – | 0.182 nM
CC[C@@H]1CCCC[C@@](O)(CO)[C@@H]2CC[C@H]2CN2C[C@@]3(CCCc4cc(Cl)ccc43)COc3ccc(cc32)C(=O)NS1(=O)=O [Example 100035, (1S,3′R,6′R,7′S,12′R)-6-chloro-12′-ethyl-7′-hydroxy-7′-(hydroxymethyl)-3,4-dihydro-2H,15′H-spiro[naphthalene-1,22′-[20]oxa[13]thia[1,14]diazatetracyclo [14.7.2.0~3,6~.0~19,24~]pentacosa[16,18,24]trien]-15′-one 13′,13′-dioxide] | 0.601 nM | – | 1470 nM | – | –
CC[C@@H]1CCCC[C@](O)(CO)[C@@H]2CC[C@H]2CN2C[C@@]3(CCCc4cc(Cl)ccc43)COc3ccc(cc32)C(=O)NS1(=O)=O [Example 100036, (1S,3′R,6′R,7′R,12′R)-6-chloro-12′-ethyl-7′-hydroxy-7′-(hydroxymethyl)-3,4-dihydro-2H,15′H-spiro[naphthalene-1,22′-[20]oxa[13]thia[1,14]diazatetracyclo [14.7.2.0~3,6~.0~19,24~]pentacosa[16,18,24]trien]-15′-one 13′,13′-dioxide] | 0.889 nM | – | 1980 nM | – | –
CC[C@@H]1CCCC[C@](COC)(OC)[C@@H]2CC[C@H]2CN2C[C@@]3(CCCc4cc(Cl)ccc43)COc3ccc(cc32)C(=O)NS1(=O)=O [Example 100037, (1S,3′R,6′R,7′S,12′R)-6-chloro-12′-ethyl-7′-methoxy-7′-(methoxymethyl)-3,4-dihydro-2H,15′H-spiro[naphthalene-1,22′-[20]oxa[13]thia[1,14]diazatetracyclo [14.7.2.0~3,6~.0~19,24~]pentacosa[16,18,24]trien]-15′-one 13′,13′-dioxide] | 1.8 nM | – | 1920 nM | – | –
CC[C@@H]1CCCC[C@@](COC)(OC)[C@@H]2CC[C@H]2CN2C[C@@]3(CCCc4cc(Cl)ccc43)COc3ccc(cc32)C(=O)NS1(=O)=O [Example 100038, (1S,3′R,6′R,7′R,12′R)-6-chloro-12′-ethyl-7′-methoxy-7′-(methoxymethyl)-3,4-dihydro-2H,15′H-spiro[naphthalene-1,22′-[20]oxa[13]thia[1,14]diazatetracyclo [14.7.2.0~3,6~.0~19,24~]pentacosa[16,18,24]trien]-15′-one 13′,13′-dioxide] | 1.66 nM | – | 2560 nM | – | –
CC[C@@H]1CCCC[C@@](O)(COC)[C@@H]2CC[C@H]2CN2C[C@@]3(CCCc4cc(Cl)ccc43)COc3ccc(cc32)C(=O)NS1(=O)=O [Example 100039, (1S,3′R,6′R,7′S,12′R)-6-chloro-12′-ethyl-7′-hydroxy-7′-(methoxymethyl)-3,4-dihydro-2H,15′H-spiro[naphthalene-1,22′-[20]oxa[13]thia[1,14]diazatetracyclo [14.7.2.0~3,6~.0~19,24~]pentacosa[16,18,24]trien]-15′-one 13′,13′-dioxide] | 0.563 nM | – | 744 nM | – | –
